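In this assay, cells in 96-well plates receive the compound at five concentrations for 48 hours. Endpoints are linearly interpolated between the surrounding concentrations. GI50 = concentration required for 50% inhibition of growth. TGI denotes the concentration required for complete inhibition of growth.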
Key:
Assay in all cases: NCI-60 cell line screen, 48 h
[1] = test system: UACC-62 melanoma
[2] = test system: OVCAR-8 ovarian
[3] = test system: NCI-H23 lung
[4] = test system: EKVX NSCLC
[5] = test system: SN12C renal
[6] = test system: HL-60(TB) leukemia
[7] = test system: SF-268 CNS
[8] = test system: COLO 205 colon
[9] = test system: HCT-15 colon
[10] = test system: MCF7 breast
[11] = test system: LOX IMVI melanoma
[12] = test system: HCT-116 colon
[13] = test system: CAKI-1 renal
[14] = test system: OVCAR-4 ovarian
[15] = test system: UACC-257 melanoma
[16] = test system: 786-0 renal
[17] = test system: NCI-H226 lung
[18] = test system: SK-MEL-2 melanoma
[19] = test system: MOLT-4 leukemia
[20] = test system: U251 CNS
[21] = test system: OVCAR-5 ovarian
[22] = test system: HCC-2998 colon
[23] = test system: SF-539 CNS
[24] = test system: NCI-H460 lung
[25] = test system: BT-549 breast
[26] = test system: HT29 colon
[27] = test system: NCI-H522 lung
[28] = test system: MDA-MB-231 breast
[29] = test system: DU-145 prostate
[30] = test system: K-562 leukemia
[31] = test system: OVCAR-3 ovarian
[32] = test system: RXF 393 renal
[33] = test system: SK-OV-3 ovarian
[34] = test system: A498 renal
[35] = test system: MALME-3M melanoma
[36] = test system: HOP-62 NSCLC
[37] = test system: HS 578T breast
[38] = test system: NCI/ADR-RES ovarian
[39] = test system: TK-10 renal
[40] = test system: RPMI-8226 leukemia
[41] = test system: UO-31 renal
[42] = test system: CCRF-CEM leukemia
[43] = test system: SK-MEL-28 melanoma
[44] = test system: SW-620 colon
[45] = test system: SNB-19 CNS
[46] = test system: A549 NSCLC
[47] = test system: KM12 colon
[48] = test system: MDA-MB-435
[49] = test system: IGROV1 ovarian
[50] = test system: SF-295 CNS
[51] = test system: M14 melanoma
[52] = test system: T-47D breast
[53] = test system: SK-MEL-5 melanoma
[54] = test system: PC-3 prostate
[55] = test system: ACHN renal
[56] = test system: HOP-92 NSCLC
[57] = test system: SNB-75 CNS

CN(CCCCCl)P(=O)(OCc1ccc([N+](=O)[O-])o1)OCC1OC(n2cc([N+](=O)[O-])c(=O)[nH]c2=O)CC1O (centres undefined)
GI50 [1]: 49.2 µM | TGI [1]: > 100 µM | GI50 [2]: 41.6 µM | TGI [2]: > 100 µM | GI50 [3]: 75.2 µM | TGI [3]: > 100 µM | GI50 [4]: > 100 µM | TGI [4]: > 100 µM | GI50 [5]: 51.9 µM | TGI [5]: > 100 µM | GI50 [6]: > 100 µM | TGI [6]: > 100 µM | GI50 [7]: 3 µM | TGI [7]: > 100 µM | GI50 [8]: 44 µM | TGI [8]: > 100 µM | GI50 [9]: > 100 µM | TGI [9]: > 100 µM | GI50 [10]: 22.8 µM | TGI [10]: > 100 µM | GI50 [11]: 47.3 µM | TGI [11]: > 100 µM | GI50 [12]: 66.5 µM | TGI [12]: > 100 µM | GI50 [13]: 48.5 µM | TGI [13]: > 100 µM | GI50 [14]: 9.75 µM | TGI [14]: 84.8 µM | GI50 [15]: > 100 µM | TGI [15]: > 100 µM | GI50 [16]: 12.7 µM | TGI [16]: > 100 µM | GI50 [17]: 42.3 µM | TGI [17]: > 100 µM | GI50 [18]: > 100 µM | TGI [18]: > 100 µM | GI50 [19]: 25.1 µM | TGI [19]: > 100 µM | GI50 [20]: > 100 µM | TGI [20]: > 100 µM | GI50 [21]: > 100 µM | TGI [21]: > 100 µM | GI50 [22]: 37.7 µM | TGI [22]: > 100 µM | GI50 [23]: 4.51 µM | TGI [23]: > 100 µM | GI50 [24]: 3.01 µM | TGI [24]: > 100 µM | GI50 [25]: 46.2 µM | TGI [25]: > 100 µM | GI50 [26]: > 100 µM | TGI [26]: > 100 µM | GI50 [27]: > 100 µM | TGI [27]: > 100 µM | GI50 [28]: > 100 µM | TGI [28]: > 100 µM | GI50 [29]: > 100 µM | TGI [29]: > 100 µM | GI50 [30]: 49.8 µM | TGI [30]: > 100 µM | GI50 [31]: 43.6 µM | TGI [31]: > 100 µM | GI50 [32]: > 100 µM | TGI [32]: > 100 µM | GI50 [33]: 96.4 µM | TGI [33]: > 100 µM | GI50 [34]: 29.6 µM | TGI [34]: > 100 µM | GI50 [35]: > 100 µM | TGI [35]: > 100 µM | GI50 [36]: 41.2 µM | TGI [36]: > 100 µM | GI50 [37]: > 100 µM | TGI [37]: > 100 µM | GI50 [38]: > 100 µM | TGI [38]: > 100 µM | GI50 [39]: > 100 µM | TGI [39]: > 100 µM | GI50 [40]: > 100 µM | TGI [40]: > 100 µM | GI50 [41]: > 100 µM | TGI [41]: > 100 µM | GI50 [42]: 66.8 µM | TGI [42]: > 100 µM | GI50 [43]: 45.9 µM | TGI [43]: > 100 µM | GI50 [44]: > 100 µM | TGI [44]: > 100 µM | GI50 [45]: > 100 µM | TGI [45]: > 100 µM | GI50 [46]: > 100 µM | TGI [46]: > 100 µM | GI50 [47]: > 100 µM | TGI [47]: > 100 µM | GI50 [48]: > 100 µM | TGI [48]: > 100 µM | GI50 [49]: > 100 µM | TGI [49]: > 100 µM | GI50 [50]: 49.8 µM | TGI [50]: > 100 µM | GI50 [51]: 31.3 µM | TGI [51]: > 100 µM | GI50 [52]: > 100 µM | TGI [52]: > 100 µM | GI50 [53]: > 100 µM | TGI [53]: > 100 µM | GI50 [54]: > 100 µM | TGI [54]: > 100 µM | GI50 [55]: 17.5 µM | TGI [55]: > 100 µM

O=C(NCCNCCO)c1ccc(Nc2nc3ccccc3c3occc23)cc1
GI50 [1]: 16.6 µM | TGI [1]: 30.8 µM | GI50 [2]: 2.61 µM | TGI [2]: 16.2 µM | GI50 [3]: 12.8 µM | TGI [3]: 26.4 µM | GI50 [4]: 13.9 µM | TGI [4]: 32 µM | GI50 [5]: 11.9 µM | TGI [5]: 24.6 µM | GI50 [7]: > 100 µM | TGI [7]: > 100 µM | GI50 [8]: 29.1 µM | TGI [8]: > 100 µM | GI50 [9]: 16.7 µM | TGI [9]: 31.2 µM | GI50 [10]: 28 µM | TGI [10]: > 100 µM | GI50 [11]: 8.45 µM | TGI [11]: 22.2 µM | GI50 [12]: 10.1 µM | TGI [12]: 23.3 µM | GI50 [13]: 17.3 µM | TGI [13]: 33.1 µM | GI50 [14]: 24 µM | TGI [14]: > 100 µM | GI50 [16]: 13.7 µM | TGI [16]: 27.5 µM | GI50 [56]: 3.01 µM | TGI [56]: 18.4 µM | GI50 [18]: 20.5 µM | TGI [18]: 60.3 µM | GI50 [19]: 4.77 µM | TGI [19]: 15.1 µM | GI50 [20]: 11.2 µM | TGI [20]: 23.8 µM | GI50 [21]: 10.9 µM | TGI [21]: 23.2 µM | GI50 [22]: 2.14 µM | TGI [22]: 5.27 µM | GI50 [23]: 12.6 µM | TGI [23]: 29.4 µM | GI50 [24]: 28.5 µM | TGI [24]: > 100 µM | GI50 [25]: 11.5 µM | TGI [25]: 34.2 µM | GI50 [26]: 29.3 µM | TGI [26]: > 100 µM | GI50 [27]: 14.3 µM | TGI [27]: 35.4 µM | GI50 [28]: 3.12 µM | TGI [28]: 16.2 µM | GI50 [29]: 14.9 µM | TGI [29]: 30.7 µM | GI50 [30]: 3.37 µM | TGI [30]: 6.71 µM | GI50 [31]: 6.22 µM | TGI [31]: 22.8 µM | GI50 [33]: 15.4 µM | TGI [33]: 36.5 µM | GI50 [34]: 18.3 µM | TGI [34]: 39.4 µM | GI50 [36]: 12.2 µM | TGI [36]: 24.9 µM | GI50 [37]: 16.1 µM | TGI [37]: 36.7 µM | GI50 [38]: 24.9 µM | TGI [38]: 61.8 µM | GI50 [39]: 2.11 µM | TGI [39]: 6.67 µM | GI50 [40]: 18.3 µM | TGI [40]: 37.5 µM | GI50 [41]: 18.5 µM | TGI [41]: 44.9 µM | GI50 [42]: 3.05 µM | TGI [42]: 14.3 µM | GI50 [43]: 23.7 µM | TGI [43]: 58.4 µM | GI50 [57]: 9.26 µM | TGI [57]: 27.2 µM | GI50 [44]: 21.1 µM | TGI [44]: 43.1 µM | GI50 [45]: 18.5 µM | TGI [45]: 49.5 µM | GI50 [46]: 15.3 µM | TGI [46]: 30.1 µM | GI50 [47]: 8.99 µM | TGI [47]: 23.8 µM | GI50 [48]: 7.29 µM | TGI [48]: 22 µM | GI50 [49]: 6.71 µM | TGI [49]: 25.1 µM | GI50 [50]: 14.1 µM | TGI [50]: 29.8 µM | GI50 [51]: 14.9 µM | TGI [51]: 30.4 µM | GI50 [52]: 25.8 µM | TGI [52]: 90.2 µM | GI50 [53]: 18.4 µM | TGI [53]: 35.2 µM | GI50 [54]: 4.15 µM | TGI [54]: 18.3 µM | GI50 [55]: 14.2 µM | TGI [55]: 27.3 µM
